Results reported in ChEMBL document CHEMBL1141566, “Synthesis and antitumor evaluation of bis aza-anthracene-9,10-diones and bis aza-anthrapyrazole-6-ones” (2008).

Assays:
HT-29 = assay: Cytotoxicity against human HT29 cells after 72 hrs; assay type: functional; settings: HT-29, 72 h
[1] = Ratio of Kapp for synthetic poly(dA-dT)]2 oligonucleotide to Kapp for synthetic poly(dG-dC)]2 oligonucleotide

SMILES	GI50 (HT-29) [µM]	LC50 (concentration killing 50% of cells) (HT-29) [µM]	TGI (HT-29) [µM]	Ratio [1]
CCN(CC)CCNc1ccc(NCCCN(C)CCCNc2ccc(NCCN(CC)CC)c3c2C(=O)c2cnccc2C3=O)c2c1C(=O)c1ccncc1C2=O	4.5	> 100	32	3.5
CCN(CC)CCNc1ccc(NCCCN(C)CCCNc2ccc(NCCN(CC)CC)c3c2C(=O)c2ccncc2C3=O)c2c1C(=O)c1cnccc1C2=O	> 100			5
CN(CCCNc1ccc(NCCN2CCCC2)c2c1C(=O)c1cnccc1C2=O)CCCNc1ccc(NCCN2CCCC2)c2c1C(=O)c1cnccc1C2=O	0.5	> 100	7.9	2.4
